Assay type in all cases: in vivo
Series [1] relates to Ctenocephatides felis, adult cat fleas. In words: Contact activity against adult cat fleas, coated glass vial assay. Here is the method: Evaluation of the Efficacy of Test Compounds Against Adult Cat Fleas
The contact activity of a test compound against Ctenocephatides felis, adult cat fleas, is evaluated in a coated, glass vial assay. In this evaluation, a solution of test compound in acetone is allowed to dry on the interior surface of a 20 mL vial. Ten unfed adult cat fleas are added to the treated vial and mortality is assessed periodically for up to 48 h. All treatments are replicated 2 times. The data are averaged.

Series [2] has as its system Rhipacephalus sanguineus, adult ticks. As to the kind of experiment: Contact activity against adult ticks, coated glass vial assay. As for the experimental part: Evaluation of the Efficacy of Test Compounds Against Adult Ticks
The contact activity of a test compound against Rhipacephalus sanguineus, adult ticks, is evaluated in a coated glass vial assay. In this evaluation, a solution of test compound in acetone is allowed to dry on the interior surface of a 20 mL vial. Five unfed adult ticks are added to the treated vial and mortality is assessed periodically for up to 48 h. All treatments are replicated 2 times. The data are averaged.

For series [3], the system named is newly emerged larvae of Lucilia sericata, blowfly. As to the kind of experiment: Efficacy against blowfly larvae, treated paper/serum bioassay. The note with it: for mortality at 0.2 ppm / mortality at 2 ppm / mortality at 20 ppm: Lucilia sericata. As for the experimental part: Evaluation of Efficacy of Test Compounds Against Blowfly Larvae
The efficacy of a test compound against newly emerged larvae of Lucilia sericata, blowfly, is evaluated using a treated paper/serum bioassay. In this evaluation, a solution of test compound in acetone is applied to a filter paper disc and the disc is allowed to dry. Bovine serum and about 20 newly emerged blowfly larvae are added to the treated paper disc and the mortality is assessed at 24 h and 48 h. The data are averaged.

Where [4] appears, read: Conc. 0.2 ppm, 24 h, blowfly larvae, read-out: % Mortality 24 h.
[5] abbreviates: Conc. 0.2 ppm, 48 h, blowfly larvae, read-out: % Mortality 48 h.
Setting [6] is: Conc. 2.0 ppm, 24 h, blowfly larvae, read-out: % Mortality 24 h.
Where [7] appears, read: Conc. 2.0 ppm, 48 h, blowfly larvae, read-out: % Mortality 48 h.
Where [8] appears, read: Conc. 20.0 ppm, 24 h, blowfly larvae, read-out: % Mortality 24 h.
Setting [9] is: Conc. 20.0 ppm, 48 h, blowfly larvae, read-out: % Mortality 48 h.
Where [10] appears, read: Conc. 0.2 ppm, 24 h, blowfly larvae.
The mark [11] stands for this setting: Conc. 0.2 ppm, 48 h, blowfly larvae.
[12] abbreviates: Conc. 2.0 ppm, 24 h, blowfly larvae.
Where [13] appears, read: Conc. 2.0 ppm, 48 h, blowfly larvae.
Setting [14] is: Conc. 20.0 ppm, 24 h, blowfly larvae.
The mark [15] stands for this setting: Conc. 20.0 ppm, 48 h, blowfly larvae.
Setting [16] is: 24 h, read-out: % Mortality 24 h.
Where [17] appears, read: 48 h, read-out: % Mortality 48 h.

Where two headings read alike, the source gives them in different places.

Consider `CC1(c2nn(-c3c(Cl)cc(C(F)(F)F)cc3Cl)c(Cl)c2C#N)CC1(Cl)Cl` (stereo not shown) [Example 4, 5-Chloro-3-(2,2-dichloro-1-methylcyclopropyl)-1-[2,6-dichloro-4-(trifluoromethyl)phenyl]-1H-pyrazole-4-carbonitrile], for which the “% Mortality 4 h” value stood at 20% in series [1] (Conc. 0.002 ug/cm2, 4 h); 60% in series [1] (Conc. 0.2 ug/cm2, 4 h); 100% in series [1] (Conc. 2 ug/cm2, 4 h); 60% in series [2] (Conc. 0.78 ug/cm2, 4 h); 60% in series [2] (Conc. 7.80 ug/cm2, 4 h). The “% Mortality 24 h” value in series [1] (Conc. 0.002 ug/cm2, 24 h) came out at 100%; in series [1] (Conc. 0.2 ug/cm2, 24 h), 100%; in series [1] (Conc. 2 ug/cm2, 24 h) it was 100%; in series [2] (Conc. 0.78 ug/cm2, 24 h), 100%; in series [2] (Conc. 7.80 ug/cm2, 24 h) it was 100%. Further, the mortality at 0.2 ppm in series [3] (setting [4]) and in series [3] (setting [5]) was 100% each time. In addition, the mortality at 2 ppm in series [3] (setting [6]) and in series [3] (setting [7]) was 100% each time. The mortality at 20 ppm in series [3] (setting [8]) and in series [3] (setting [9]) was 100% each time.
`CC1(c2nn(-c3c(Cl)cc(C(F)(F)F)cc3Cl)c(Br)c2C#N)CC1(Cl)Cl` (stereo not shown) [Example 29]: the “% Mortality 4 h” value is reported as 10% in series [1] (Conc. 0.02 ug/cm2, 4 h); 20% in series [1] (Conc. 0.2 ug/cm2, 4 h); 50% in series [1] (Conc. 2 ug/cm2, 4 h); 0% in series [2] (Conc. 0.78 ug/cm2, 4 h); 20% in series [2] (Conc. 7.80 ug/cm2, 4 h). Further, the “% Mortality 24 h” value is 100% in series [1] (Conc. 0.02 ug/cm2, 24 h); 100% in series [1] (Conc. 0.2 ug/cm2, 24 h); 100% in series [1] (Conc. 2 ug/cm2, 24 h); 40% in series [2] (Conc. 0.78 ug/cm2, 24 h); 60% in series [2] (Conc. 7.80 ug/cm2, 24 h); 15% in series [3] (setting [10]). In addition, the “% Mortality 24 h” value in series [3] (setting [12]) and in series [3] (setting [14]) was 100% each time. Moreover, the “% Mortality 48 h” value in series [3] (setting [11]) turned out to be 15%; in series [3] (setting [13]), 100%; in series [3] (setting [15]) it was 100%.
In the case of `CN(C)c1c(C#N)c(C2(C)CC2(Cl)Cl)nn1-c1c(Cl)cc(C(F)(F)F)cc1Cl` (stereo not shown) [Example 32], the “% Mortality 4 h” value in series [1] (Conc. 2 ug/cm2, 4 h) was found to be 0%; in series [2] (Conc. 0.78 ug/cm2, 4 h), 0%; in series [2] (Conc. 7.80 ug/cm2, 4 h), 0%. Further, the “% Mortality 24 h” value was found to be 100% in series [1] (Conc. 2 ug/cm2, 24 h); 60% in series [2] (Conc. 0.78 ug/cm2, 24 h); 30% in series [2] (Conc. 7.80 ug/cm2, 24 h); 0% in series [3] (setting [10]); 0% in series [3] (setting [12]); 91% in series [3] (setting [14]). The results for the “% Mortality 48 h” value in series [3] (setting [11]), in series [3] (setting [13]) and in series [3] (setting [15]) were 0%, 0% and 96%, respectively.
For `N#Cc1nn(-c2c(Cl)cc(C(F)(F)F)cc2Cl)c(N)c1[S+]([O-])C(F)(F)F` (stereo not shown) [Standard, Fipronil, reference compound], the “% Mortality 4 h” value in series [1] (Conc. 0.02 ug/cm2, 4 h) is recorded as 0%; in series [1] (Conc. 0.2 ug/cm2, 4 h) it was 10%; in series [1] (Conc. 2 ug/cm2, 4 h), 30%; in series [2] (Conc. 0.78 ug/cm2, 4 h), 90%; in series [2] (Conc. 7.80 ug/cm2, 4 h), 100%. For the same compound, the “% Mortality 24 h” value in series [1] (Conc. 0.02 ug/cm2, 24 h) is given as 100%; in series [1] (Conc. 0.2 ug/cm2, 24 h), 100%; in series [1] (Conc. 2 ug/cm2, 24 h) it was 100%; in series [2] (Conc. 0.78 ug/cm2, 24 h) it was 100%; in series [2] (Conc. 7.80 ug/cm2, 24 h) it was 100%. The mortality at 0.2 ppm in series [3] (setting [16]) came to 0%; in series [3] (setting [17]), 100%. Moreover, the mortality at 2 ppm in series [3] (setting [16]) and in series [3] (setting [17]) was 100% each time. Also, the mortality at 20 ppm in series [3] (setting [16]) and in series [3] (setting [17]) was 100% in each case.
Regarding `CC1(c2nn(-c3c(Cl)cc(C(F)(F)F)cc3Cl)c(I)c2C#N)CC1(Cl)Cl` (stereo not shown) [Example 31], the “% Mortality 4 h” value in series [1] (Conc. 2 ug/cm2, 4 h) came to 20%; in series [2] (Conc. 0.78 ug/cm2, 4 h), 10%; in series [2] (Conc. 7.80 ug/cm2, 4 h), 50%. Also, the “% Mortality 24 h” value in series [1] (Conc. 2 ug/cm2, 24 h) is 100%; in series [2] (Conc. 0.78 ug/cm2, 24 h) it was 20%; in series [2] (Conc. 7.80 ug/cm2, 24 h) it was 50%; in series [3] (setting [10]) it was 0%; in series [3] (setting [12]), 95%; in series [3] (setting [14]) it was 97%. Also, the “% Mortality 48 h” value is 0% in series [3] (setting [11]), 100% in series [3] (setting [13]) and 100% in series [3] (setting [15]).
`CC1(c2nn(-c3c(Cl)cc(C(F)(F)F)cc3Cl)c(N)c2C#N)CC1(Cl)Cl` (stereo not shown) [Example 19, 5-Amino-3-(2,2-dichloro-1-methylcyclopropyl)-1-[2,6-dichloro-4-(trifluoromethyl)phenyl]-1H-pyrazole-4-carbonitrile]: the “% Mortality 4 h” value in series [1] (Conc. 2 ug/cm2, 4 h) came out at 0%; in series [2] (Conc. 0.78 ug/cm2, 4 h), 0%; in series [2] (Conc. 7.80 ug/cm2, 4 h), 40%. The “% Mortality 24 h” value is 10% in series [1] (Conc. 2 ug/cm2, 24 h); 20% in series [2] (Conc. 0.78 ug/cm2, 24 h); 70% in series [2] (Conc. 7.80 ug/cm2, 24 h). Further, the mortality at 0.2 ppm in series [3] (setting [4]) and in series [3] (setting [5]) was 0% throughout. In addition, the mortality at 2 ppm in series [3] (setting [6]) and in series [3] (setting [7]) was 100% in each case. Besides, the results for the mortality at 20 ppm in series [3] (setting [8]) and in series [3] (setting [9]) were 75% and 95%, respectively.
On to `CC1(c2nn(-c3c(Cl)cc(C(F)(F)F)cc3Cl)c(Br)c2C#N)CC1(Br)Br` (stereo not shown) [Example 22], for which the “% Mortality 4 h” value in series [1] (Conc. 2 ug/cm2, 4 h) came to 0%; in series [2] (Conc. 0.78 ug/cm2, 4 h), 20%; in series [2] (Conc. 7.80 ug/cm2, 4 h), 0%. For the same compound, the “% Mortality 24 h” value in series [1] (Conc. 2 ug/cm2, 24 h) was 100%; in series [2] (Conc. 0.78 ug/cm2, 24 h) it was 30%; in series [2] (Conc. 7.80 ug/cm2, 24 h), 60%; in series [3] (setting [10]), 0%; in series [3] (setting [12]) it was 100%; in series [3] (setting [14]), 100%. For the same compound, the “% Mortality 48 h” value in series [3] (setting [11]) was found to be 0%; in series [3] (setting [13]), 100%; in series [3] (setting [15]), 100%.
As for `CC1C(Cl)(Cl)C1(C)c1nn(-c2c(Cl)cc(C(F)(F)F)cc2Cl)cc1C#N` (stereo not shown) [Example 7], the “% Mortality 4 h” value was 0% in series [1] (Conc. 2 ug/cm2, 4 h); 0% in series [2] (Conc. 0.78 ug/cm2, 4 h); 10% in series [2] (Conc. 7.80 ug/cm2, 4 h). Moreover, the “% Mortality 24 h” value is recorded as 100% in series [1] (Conc. 2 ug/cm2, 24 h); 10% in series [2] (Conc. 0.78 ug/cm2, 24 h); 80% in series [2] (Conc. 7.80 ug/cm2, 24 h); 0% in series [3] (setting [12]); 77% in series [3] (setting [14]). Moreover, the “% Mortality 48 h” value in series [3] (setting [13]) was 0%; in series [3] (setting [15]) it was 90%.
Regarding `CC1(c2nn(-c3c(Cl)cc(C(F)(F)F)cc3Cl)c(Cl)c2C#N)CC1(Br)Br` (stereo not shown) [Example 20], the “% Mortality 4 h” value in series [1] (Conc. 2 ug/cm2, 4 h) worked out at 20%; in series [2] (Conc. 0.78 ug/cm2, 4 h), 0%; in series [2] (Conc. 7.80 ug/cm2, 4 h), 20%. In addition, the “% Mortality 24 h” value in series [1] (Conc. 2 ug/cm2, 24 h) worked out at 100%; in series [2] (Conc. 0.78 ug/cm2, 24 h), 20%; in series [2] (Conc. 7.80 ug/cm2, 24 h), 50%; in series [3] (setting [10]), 0%; in series [3] (setting [12]), 100%; in series [3] (setting [14]) it was 100%. Further, the “% Mortality 48 h” value in series [3] (setting [11]) worked out at 0%; in series [3] (setting [13]), 100%; in series [3] (setting [15]) it was 100%.

The values above are taken from patent US20060154923A1, “N-phenyl-3-cyclopropylpyrazole-4-carbonitriles as ectoparasiticidal agents” (priority 2002, published 2006).
